Legend:
[1] = In vitro etoricoxib release from PEU films, USP Apparatus 7, PBS; type: physicochemical; settings: about 6 mg in USP 7, PBS, n=3
[2] = 90 mg etoricoxib dosed patients in comparison to diclofenac at 150 mg; oral; cited from earlier work
[3] = Etoricoxib solubility in the release media; type: physicochemical; settings: used in Higuchi equation
Procedure: D=(slope/A)^2/2CCs • Where the slope is the amount of drug released at time t divided by the square root of time, A is the area of the film, C is the initial drug concentration (or the drug-load in the polymer), CS is the drug solubility in the media (0.5 mg/mL) and D is the diffusivity constant. This constant not only indicates the mobility of the drug from the film into the media, but also can be used to calculate for the time of total release using the maximum amount of drug within the film (Table 11).

time at which free drug release reached a plateau [1]: ~1 days | drug solubility in the media (CS) [3]: 500 µg/mL
SMILES: Cc1ccc(-c2ncc(Cl)cc2-c2ccc(S(C)(=O)=O)cc2)cn1 [etoricoxib]
gastrointestinal events [2]: decrease in gastrointestinal events | risk of edema and hypertension [2]: dose-dependent increased risk

From US20250090475A1, “DRUG-LOADED AMINO ACID BASED POLY (ESTERUREA)FILMS FOR CONTROLLED LOCAL RELEASE OF NON-OPIOID ANALGESIC COMPOUNDS” (MERK SHARP & DOHME CORP., priority 2020, published 2025)
